Source: ChEMBL document CHEMBL6182873, “Fungal dimeric xanthones as anticancer agents by novelly stimulating sodium-calcium exchanger 1” (Eur J Med Chem, 2025)
pIC50: −log10 of the molar value. The source made the active and inactive calls. No cut-off for these calls is given here.

Assays:
AGS [1] = experiment: Anti-proliferative activity against human AGS cells assessed as inhibition of cell viability incubated for 48 hrs by CCK8 assay; format: functional, cell-based
AGS [2] = experiment: Potency index, ratio of cisplatin IC50 to test compound IC50 for anti-proliferative activity against human AGS cells assessed as inhibition of cell viability incubated for 48 hrs by CCK8 assay; format: functional
GES1 = experiment: Anti-proliferative activity against human GES1 cells; format: toxicity, cell-based
Gastric cancer cell = experiment: Anti-proliferative activity against human gastric cancer cells assessed as reduction in cell proliferation at 10 to 40 uM; format: functional, cell-based; conditions: dose 10-40 µM
[3] = target: Sodium/calcium exchanger 1 (Homo sapiens) (UniProt P32418); experiment: Activation of NCX1 in human AGS cells harboring shNCX1 assessed as increase in intracellular Fluo4-Ca2+ level at 5 uM in presence of extracellular Fluo4-Ca2+ by cell imaging analysis; format: cell-based
Sodium/calcium exchanger 1 (Homo sapiens), sequence (P32418 36-973 limits assumed): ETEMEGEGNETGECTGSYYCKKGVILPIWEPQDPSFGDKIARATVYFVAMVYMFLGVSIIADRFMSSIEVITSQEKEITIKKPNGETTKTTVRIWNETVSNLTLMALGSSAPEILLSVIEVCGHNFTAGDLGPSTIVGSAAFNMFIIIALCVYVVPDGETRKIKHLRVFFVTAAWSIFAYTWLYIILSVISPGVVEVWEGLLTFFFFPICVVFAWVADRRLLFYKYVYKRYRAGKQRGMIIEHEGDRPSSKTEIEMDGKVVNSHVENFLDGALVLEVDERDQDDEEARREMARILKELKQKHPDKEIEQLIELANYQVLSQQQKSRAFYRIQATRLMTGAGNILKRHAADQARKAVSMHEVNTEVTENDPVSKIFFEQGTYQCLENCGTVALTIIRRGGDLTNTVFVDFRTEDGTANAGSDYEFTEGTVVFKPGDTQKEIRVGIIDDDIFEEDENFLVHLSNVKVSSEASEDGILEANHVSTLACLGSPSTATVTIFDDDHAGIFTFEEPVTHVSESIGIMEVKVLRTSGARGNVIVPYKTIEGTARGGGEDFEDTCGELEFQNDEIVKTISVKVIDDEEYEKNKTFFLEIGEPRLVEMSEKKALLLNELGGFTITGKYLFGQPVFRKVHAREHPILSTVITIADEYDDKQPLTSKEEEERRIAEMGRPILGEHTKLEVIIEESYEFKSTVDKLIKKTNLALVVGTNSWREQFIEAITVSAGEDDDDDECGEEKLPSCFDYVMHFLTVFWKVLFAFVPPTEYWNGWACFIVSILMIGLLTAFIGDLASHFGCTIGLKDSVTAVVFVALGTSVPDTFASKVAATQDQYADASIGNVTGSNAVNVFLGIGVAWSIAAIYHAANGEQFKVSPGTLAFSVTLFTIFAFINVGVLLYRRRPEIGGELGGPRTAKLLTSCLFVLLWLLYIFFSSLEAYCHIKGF

[4] = target: Sodium/calcium exchanger 1 (Homo sapiens) (UniProt P32418); experiment: Activation of NCX1 in human AGS cells assessed as induction of membrane currents at 5 uM in presence of extracellular Fluo4-Ca2+ by cell imaging analysis; format: cell-based; conditions: filed as activator
[5] = target: Sodium/calcium exchanger 1 (Homo sapiens) (UniProt P32418); experiment: Activation of NCX1 in human AGS cells assessed as increase in intracellular Fluo4-Ca2+ level at 5 uM in presence of extracellular Fluo4-Ca2+/SN6 by cell imaging analysis; format: cell-based
[6] = target: Sodium/calcium exchanger 1 (Homo sapiens) (UniProt P32418); experiment: Activation of NCX1 in human AGS cells assessed as induction of membrane currents at 5 uM in presence of extracellular Fluo4-Ca2+/SN6 by cell imaging analysis; format: cell-based
[7] = target: Sodium/calcium exchanger 1 (Homo sapiens) (UniProt P32418); experiment: Activation of NCX1 in human DLD-1 cells assessed as increase in intracellular Fluo4-Ca2+ level at 5 uM in presence of extracellular Fluo4-Ca2+ by cell imaging analysis; format: cell-based
AGS [8] = experiment: Induction of cell cycle arrest in human AGS cells assessed as cell accumulation at G2 phase at 5 uM by PI staining based flow cytometry (reference value: 25.7 %); format: functional
AGS [9] = experiment: Induction of apoptosis in human AGS cells assessed as viable cells at 5 uM by Annexin V-FITC/PI staining based flow cytometry (reference value: 94.1 %); format: functional; conditions: read-out: Activity
AGS [10] = experiment: Downregulation of PI3K level in human AGS cells at 5 uM in presence of SN 6 by Western blot analysis; format: functional, cell-based
AGS [11] = experiment: Induction of apoptosis in human AGS cells assessed as early apoptotic cells at 20 uM by Annexin V-FITC/PI staining based flow cytometry (reference value: 4.25 %); format: functional
AGS [12] = experiment: Downregulation of AKT level in human AGS cells at 5 uM in presence of SN 6 by Western blot analysis; format: functional, cell-based
AGS [13] = experiment: Induction of apoptosis in human AGS cells assessed as late apoptotic cells at 5 uM by Annexin V-FITC/PI staining based flow cytometry (reference value: 1.43 %); format: functional
AGS [14] = experiment: Inhibition of cell migration in human AGS cells at 5 uM incubated up to 24 hrs by scratch wound healing assay; format: functional, cell-based
AGS [15] = experiment: Induction of apoptosis in human AGS cells assessed as necrotic cells at 20 uM by Annexin V-FITC/PI staining based flow cytometry (reference value: 0.20 %); format: functional
AGS [16] = experiment: Downregulation of beta-catenin level in human AGS cells at 5 uM in presence of SN 6 by Western blot analysis; format: functional, cell-based
[17] = target: Sodium/calcium exchanger 1 (Homo sapiens) (UniProt P32418); experiment: Activation of NCX1 in human AGS cells assessed as increase in intracellular Fluo4-Ca2+ level at 5 uM in presence of extracellular Fluo4-Ca2+ by cell imaging analysis; format: cell-based; conditions: filed as activator
AGS [18] = experiment: Induction of cell cycle arrest in human AGS cells assessed as cell accumulation at G1 phase at 5 uM by PI staining based flow cytometry (reference value: 41.9 %); format: functional
AGS [19] = experiment: Induction of apoptosis in human AGS cells assessed as necrotic cells at 5 uM by Annexin V-FITC/PI staining based flow cytometry (reference value: 0.20 %); format: functional
AGS [20] = experiment: Downregulation of AKT level in human AGS cells by Western blot analysis; format: functional, cell-based; conditions: dose <= 10.0 µM
AGS [21] = experiment: Induction of apoptosis in human AGS cells assessed as late apoptotic cells at 20 uM by Annexin V-FITC/PI staining based flow cytometry (reference value: 1.43 %); format: functional
B16 [22] = experiment: Antiproliferative activity against mouse B16 cells assessed as inhibition of cell viability; format: functional, cell-based
AGS [23] = experiment: Downregulation of beta-catenin level in human AGS cells by Western blot analysis; format: functional, cell-based; conditions: dose <= 10.0 µM
AGS [24] = experiment: Inhibition of cell migration in human AGS cells at 5 uM by transwell assay; format: functional, cell-based
B16 [25] = experiment: Activation of NCX1 in mouse B16 cells assessed as increase in intracellular Fluo4-Ca2+ level at 5 uM in presence of extracellular Fluo4-Ca2+/SN 6 by cell imaging analysis; format: cell-based
AGS [26] = experiment: Induction of apoptosis in human AGS cells assessed as early apoptotic cells at 5 uM by Annexin V-FITC/PI staining based flow cytometry (reference value: 4.25 %); format: functional
AGS [27] = experiment: Induction of apoptosis in human AGS cells assessed as viable cells at 20 uM by Annexin V-FITC/PI staining based flow cytometry (reference value: 94.1 %); format: functional; conditions: read-out: Activity
B16 [28] = experiment: Activation of NCX1 in mouse B16 cells assessed as increase in intracellular Fluo4-Ca2+ level at 5 uM in presence of extracellular Fluo4-Ca2+ by cell imaging analysis; format: cell-based; conditions: filed as activator
B16 [29] = experiment: Antitumor activity against mouse B16 cells implanted in nude mouse at 2.5 to 5 mg/kg, ip; format: functional, organism-based; conditions: dose 2.5-5 mg/kg
B16 [30] = experiment: Activation of NCX1 in mouse B16 cells harboring shNCX1 assessed as increase in intracellular Fluo4-Ca2+ level at 5 uM in presence of extracellular Fluo4-Ca2+ by cell imaging analysis; format: cell-based
AGS [31] = experiment: Induction of apoptosis in human AGS cells assessed as viable cells at 10 uM by Annexin V-FITC/PI staining based flow cytometry (reference value: 94.1 %); format: functional; conditions: read-out: Activity
AGS [32] = experiment: Induction of apoptosis in human AGS cells assessed as necrotic cells at 10 uM by Annexin V-FITC/PI staining based flow cytometry (reference value: 0.20 %); format: functional
AGS [33] = experiment: Effect on ERK1/2 level in human AGS cells up to 10 uM by Western blot analysis; format: functional, cell-based
AGS [34] = experiment: Induction of apoptosis in human AGS cells assessed as early apoptotic cells at 10 uM by Annexin V-FITC/PI staining based flow cytometry (reference value: 4.25 %); format: functional
AGS [35] = experiment: Induction of cell cycle arrest in human AGS cells assessed as cell accumulation at S phase at 5 uM by PI staining based flow cytometry (reference value: 32.4 %); format: functional
AGS [36] = experiment: Induction of apoptosis in human AGS cells assessed as late apoptotic cells at 10 uM by Annexin V-FITC/PI staining based flow cytometry (reference value: 1.43 %); format: functional
AGS [37] = experiment: Downregulation of PI3K level in human AGS cells by Western blot analysis; format: functional, cell-based; conditions: dose <= 10.0 µM

CC(=O)O[C@H]1[C@@H](C)CC(O)=C2C(=O)c3c(O)ccc(-c4ccc5c(c4O)C(=O)C[C@](CO)([C@H]4OC(=O)C[C@@H]4C)O5)c3O[C@]21CO
pIC50 (AGS [1]; Homo sapiens, AGS, 48 h): 5.58 | Ratio IC50 (AGS [2]): 2 | Activity (GES1): Non-toxic

CC(=O)O[C@H]1[C@@H](C)CC(O)=C2C(=O)c3c(ccc(-c4ccc(O)c5c4O[C@]4(CO)C(=C(O)C[C@H](C)[C@@H]4OC(C)=O)C5=O)c3O)O[C@]21CO
pIC50 (AGS [1]; Homo sapiens, AGS, 48 h): 5.51 | Ratio IC50 (AGS [2]): 2 | Activity (Gastric cancer cell): Active | Activity (GES1): Non-toxic

CC(=O)OC[C@@]12Oc3c(-c4ccc5c(c4O)C(=O)C4=C(O)C[C@H](C)[C@H](OC(C)=O)[C@]4(CO)O5)ccc(O)c3C(=O)C1=C(O)C[C@H](C)[C@@H]2OC(C)=O (stereo in doubt; 2) [listing 1 of 2 here]
Activity (Gastric cancer cell): Active

CC(=O)OC[C@@]12Oc3ccc(-c4ccc5c(c4O)C(=O)C4=C(O)C[C@H](C)[C@H](OC(C)=O)[C@]4(CO)O5)c(O)c3C(=O)C1=C(O)C[C@H](C)[C@@H]2OC(C)=O
pIC50 (AGS [1]; Homo sapiens, AGS, 48 h): 5.46 | Ratio IC50 (AGS [2]): 2 | Activity (Gastric cancer cell): Active | Activity (GES1): Non-toxic

CC(=O)OC[C@@]12Oc3c(-c4ccc5c(c4O)C(=O)C4=C(O)C[C@H](C)[C@H](OC(C)=O)[C@]4(CO)O5)ccc(O)c3C(=O)C1=C(O)C[C@H](C)[C@@H]2OC(C)=O (stereo in doubt; 2) [listing 2 of 2 here]
pIC50 (AGS [1]; Homo sapiens, AGS, 48 h): 5.27 | Ratio IC50 (AGS [2]): 2 | Activity (GES1): Non-toxic

CC(=O)OC[C@@]12Oc3c(-c4ccc5c(c4O)C(=O)C4=C(O)C[C@H](C)[C@H](OC(C)=O)[C@]4(CO)O5)ccc(O)c3C(=O)C1=C(O)C[C@H](C)[C@@H]2OC(C)=O (stereo in doubt; 3) [listing 1 of 2 here]
Activity [3]: inactive | Activity (Gastric cancer cell): Active | Activity [4]: Active | Activity [5]: inactive | Activity [6]: inactive | Activity [7]: inactive

CC(=O)OC[C@@]12Oc3c(-c4ccc(O)c5c4O[C@]4(CO)C(=C(O)C[C@H](C)[C@@H]4OC(C)=O)C5=O)ccc(O)c3C(=O)C1=C(O)C[C@H](C)[C@@H]2OC(C)=O
Activity (AGS [8]): 24.9% | pIC50 (AGS [1]; Homo sapiens, AGS, 48 h): 5.28 | viability at 5 µM (AGS [9]): 91.8% | Activity (AGS [10]): inactive | Activity (AGS [11]): 16.6% | Activity (AGS [12]): inactive | Activity (AGS [13]): 2.54% | Ratio IC50 (AGS [2]): 2 | inhibition (AGS [14]): Active | Activity (AGS [15]): 0.18% | Activity (AGS [16]): inactive | Activity [17]: Active | Activity (AGS [18]): 48.8% | Activity (AGS [19]): 0.13% | Activity (AGS [20]): Dose-dependent-effect | Activity [3]: inactive | Activity (AGS [21]): 5.94% | Activity (Gastric cancer cell): Active | pIC50 (B16 [22]): 5.27 | Activity (AGS [23]): Dose-dependent-effect | inhibition (AGS [24]): Active | Activity (B16 [25]): inactive | Activity (AGS [26]): 5.57% | viability at 20 µM (AGS [27]): 77.3% | Activity (B16 [28]): Active | Activity [4]: Active | Activity (B16 [29]): Active; Activity Was Much Greater Than Cisplatin | Activity (B16 [30]): inactive | viability at 10 µM (AGS [31]): 93.7% | Activity (GES1): Non-toxic | Activity (AGS [32]): 0.094% | Activity (AGS [33]): No effect | Activity (AGS [34]): 4.24% | Activity (AGS [35]): 26.3% | Activity [5]: inactive | Activity (AGS [36]): 2.01% | Activity [6]: inactive | Activity [7]: inactive | Activity (AGS [37]): Dose-dependent-effect

CC(=O)OC[C@@]12Oc3c(-c4ccc5c(c4O)C(=O)C4=C(O)C[C@H](C)[C@H](OC(C)=O)[C@]4(CO)O5)ccc(O)c3C(=O)C1=C(O)C[C@H](C)[C@@H]2OC(C)=O (stereo in doubt; 3) [listing 2 of 2 here]
pIC50 (AGS [1]; ags): 5.41

CC(=O)OC[C@@]12Oc3ccc(-c4ccc5c(c4O)C(=O)C4=C(O)C[C@H](C)[C@H](OC(C)=O)[C@]4(COC(C)=O)O5)c(O)c3C(=O)C1=C(O)C[C@H](C)[C@@H]2OC(C)=O
pIC50 (AGS [1]; Homo sapiens, AGS, 48 h): 5.21 | Ratio IC50 (AGS [2]): 2 | Activity (Gastric cancer cell): Active | Activity (GES1): Non-toxic

CC(=O)O[C@H]1[C@@H](C)CC(O)=C2C(=O)c3c(O)ccc(-c4ccc(O)c5c4O[C@]4(CO)C(=C(O)C[C@H](C)[C@@H]4OC(C)=O)C5=O)c3O[C@]21CO
pIC50 (AGS [1]; Homo sapiens, AGS, 48 h): 4.86 | Ratio IC50 (AGS [2]): 2 | Activity (Gastric cancer cell): Active | Activity (GES1): Non-toxic

CC(=O)O[C@H]1[C@@H](C)CC(O)=C2C(=O)c3c(ccc(-c4ccc5c(c4O)C(=O)C4=C(O)C[C@H](C)[C@H](OC(C)=O)[C@]4(CO)O5)c3O)O[C@]21CO
pIC50 (AGS [1]; Homo sapiens, AGS, 48 h): 5.46 | Ratio IC50 (AGS [2]): 2 | Activity (Gastric cancer cell): Active | Activity (GES1): Non-toxic
